Data taken from US20100130614A1, “ADMINISTRATION OF ADAPALENE FOR MODULATING THE EXPRESSION OF IL-1ra” (GALDERMA RESEARCH & DEVELOPMENT, priority 2007, published 2010).
“Also recorded” adds a separate entry of the source.

Columns and labels:
lipoxygenase pathway = conditions: cited from earlier work
RARβ = target: T1, RARβ (Homo sapiens, UniProt P10826); conditions: cited from earlier work
T1 sequence (P10826 1-455): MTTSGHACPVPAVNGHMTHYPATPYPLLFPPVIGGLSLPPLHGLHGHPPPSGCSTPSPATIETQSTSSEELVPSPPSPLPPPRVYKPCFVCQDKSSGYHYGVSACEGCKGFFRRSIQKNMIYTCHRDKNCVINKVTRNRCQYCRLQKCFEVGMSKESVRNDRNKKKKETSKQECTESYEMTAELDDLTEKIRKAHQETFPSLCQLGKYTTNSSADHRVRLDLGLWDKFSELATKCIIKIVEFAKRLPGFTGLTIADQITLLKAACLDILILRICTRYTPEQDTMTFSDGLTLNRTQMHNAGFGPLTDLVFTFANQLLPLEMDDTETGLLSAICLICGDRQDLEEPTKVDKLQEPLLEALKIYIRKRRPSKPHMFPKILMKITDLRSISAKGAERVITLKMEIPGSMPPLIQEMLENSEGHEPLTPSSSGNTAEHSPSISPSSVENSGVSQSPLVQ

IL-1ra [1] = assay: ELISA assay of IL-1ra secreted in culture supernatants of explants of healthy skin; type: cell-based, human; conditions: for amount of IL-1ra secreted in the culture supernatants: healthy skin explants (n=8), 24 hours
Description: (§1) Fragments of healthy skin from 8 healthy donors were obtained from mammary plasties (plastic surgery) or from a foreskin (infant surgery).
(§2) The fragments of healthy skin and of acneic skin were incubated at 37° C. in a humid atmosphere and in the presence of 5% CO2 for 24 hours in KGM culture medium without hydrocortisone (PromoCell, Heidelberg, Germany). The culture medium was supplemented with 2 different concentrations of adapalene (Galderma, Sophia Antipolis): 10^−7 M and 10^−6 M. The culture medium alone served as control medium.
(§3) After incubation, the explants were removed from the culture medium and were then frozen in liquid nitrogen for the immunohistochemical study. The culture supernatants were frozen at −80° C. to evaluate the protein secretion using an ELISA assay technique.
(§4) The IL-1ra protein secretion […] in the culture supernatants of the explants of acneic skin and of healthy skin, incubated in the presence or absence of adapalene, was evaluated by means of an ELISA assay using the IL-1ra Cytoscreen detection kit (Biosource Europe S.A., Nivelles, Belgium) and according to the supplier's instructions.
(§5) A mean was established on 8 healthy donors or 8 acneic patients in each of the “control”, “10^−7 M adapalene” and “10^−6 M adapalene” groups.
(§6) The paired Wilcoxon test was employed for the statistical analysis, and p<0.05 (by comparison with the control medium) was considered to be significant.

RARγ = target: T2, RARγ (Homo sapiens, UniProt P13631); conditions: cited from earlier work
T2 sequence (P13631 1-454): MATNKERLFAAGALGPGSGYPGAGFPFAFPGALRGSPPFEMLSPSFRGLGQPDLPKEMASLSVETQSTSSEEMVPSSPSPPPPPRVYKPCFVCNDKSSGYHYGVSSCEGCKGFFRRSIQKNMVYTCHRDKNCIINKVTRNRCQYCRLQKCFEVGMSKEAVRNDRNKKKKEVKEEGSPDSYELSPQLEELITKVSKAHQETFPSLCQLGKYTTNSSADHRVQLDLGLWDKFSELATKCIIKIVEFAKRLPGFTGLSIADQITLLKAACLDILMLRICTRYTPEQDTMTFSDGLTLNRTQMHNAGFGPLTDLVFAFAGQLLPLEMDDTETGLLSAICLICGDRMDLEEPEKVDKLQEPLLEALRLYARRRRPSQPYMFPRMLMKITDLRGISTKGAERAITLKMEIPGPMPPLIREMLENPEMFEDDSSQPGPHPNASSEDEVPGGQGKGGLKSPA

[2] = test system: polymorphonuclear neutrophils; conditions: cited from earlier work
IL-1ra [3] = assay: ELISA assay of IL-1ra secreted in culture supernatants of explants of acneic skin; type: cell-based, human; conditions: for secreted amount of IL-1ra: acneic skin explants (n=8), 24 hours; for increase of secreted IL-1ra compared with the control medium: acneic skin explants
Description: (§7) A skin biopsy (1×1.5 cm) was obtained from inflammatory papulae of lesions on the back of 8 acneic patients (having received no local treatment for 2 weeks or no general treatment for 1 month, or 3 months with isotretinoin). The fragments sampled were immediately placed in culture.
as §2, §3, §4, §5, §6

IL-1ra [4] = assay: Immunohistochemistry of IL-1ra expression in explants of healthy human skin; type: cell-based; conditions: for intensity of expression of IL-1ra / intensity of expression of IL-1ra in the epidermis: 24 hours; for intensity of expression of IL-1ra: scale 0-3; for intensity of expression of IL-1ra in the epidermis: healthy donors (n=8), scale 0=none to 3=strong, mean (+/−)
Description: as §1, §2, §3
(§8) The expression of IL-1ra was evaluated by an immunoperoxidase technique in the explants of healthy skin from 8 healthy donors and of the acneic skin from 8 patients.
For this, cryostat sections 5 μm thick were cut from the skin explants, and were then fixed in acetone at 4° C. for 10 minutes. After saturation of the nonspecific sites with bovine albumin (BSA) for 30 minutes at ambient temperature, the slides were incubated for 30 minutes at ambient temperature and in a humid atmosphere in the presence of the corresponding primary antibody [anti-IL-1ra monoclonal antibody at 10 μg/ml (R&D Systems)] or of an irrelevant isotype antibody for the negative control (normal goat IgG at (R&D Systems), IgG2a monoclonal antibody (DAKO, Trappes, France), IgG1 monoclonal antibody (DAKO)).
After washing for 15 minutes in TBS/0.1% BSA/0.05% Tween 20, the slides were incubated with a biotinylated secondary antibody (DAKO) for 30 minutes at ambient temperature and in a humid atmosphere. After a further washing step, the slides were incubated for 30 minutes in the presence of streptavidin/peroxidise (DAKO) for 30 minutes at ambient temperature and in a humid atmosphere. After a final wash, the slides were incubated for 5 minutes in the presence of AEC (DAKO), a substrate for peroxidise, and then counterstained with Mayer's hemalun. The slides were read under a microscope.
(§9) The slides were read under a Leitz microscope by 2 investigators.
A semi-quantitative scale was used to define the intensity of the labeling: 0=none, 1=weak, 2=medium, 3=strong.
as §5, §6

free radicals = conditions: cited from earlier work
[5] = test system: cellular retinoic acid binding proteins; conditions: cited from earlier work
[6] = test system: superficial inflammatory lesions; conditions: clinically; cited from earlier work
IL-1ra [7] = assay: Immunohistochemistry of IL-1ra expression in explants of acneic skin; type: cell-based, human; conditions: for intensity of expression of IL-1ra in the epidermis: acneic patients (n=8), 24 hours, scale 0-3
Description: as §7, §2, §3, §8
For this, cryostat sections 5 μm thick were cut from the skin explants, and were then fixed in acetone at 4° C. for 10 minutes. […]
After washing for 15 minutes in TBS/0.1% BSA/0.05% Tween 20, the slides were incubated with a biotinylated secondary antibody (DAKO) for 30 minutes at ambient temperature and in a humid atmosphere. […] The slides were read under a microscope.
as §9
A semi-quantitative scale was used to define the intensity of the labeling: 0=none, 1=weak, 2=medium, 3=strong. […]

SMILES: COc1ccc(-c2ccc3cc(C(=O)O)ccc3c2)cc1C12CC3CC(CC(C3)C1)C2 [adapalene, 6-[3-(1-adamantyl)-4-methoxyphenyl]-2-naphthoic acid]
- oxidative metabolism of arachidonic acid via the lipoxygenase pathway (in words) (lipoxygenase pathway): inhibits
- production of leukotrienes via the lipoxygenase pathway (in words) (lipoxygenase pathway): inhibits
- binding to RARβ (in words) (RARβ): binds selectively
- amount of IL-1ra secreted in the culture supernatants (IL-1ra [1]; 10^−6 M adapalene): 564 pg
- amount of IL-1ra secreted in the culture supernatants (IL-1ra [1]; 10^−7 M adapalene): 600 pg
- decrease of secreted IL-1ra compared with the control medium (IL-1ra [1]; healthy skin explants, 10^−6 M adapalene): 3.5%
- increase of secreted IL-1ra compared with the control medium (IL-1ra [1]; healthy skin explants, 10^−7 M adapalene): 2.6%
- binding to RARγ (in words) (RARγ): binds selectively
- chemotaxis of polymorphonuclear neutrophils (in words) [2]: inhibits
- secreted amount of IL-1ra (IL-1ra [3]; 10^−6 M adapalene): 1161 pg
- secreted amount of IL-1ra (IL-1ra [3]; 10^−7 M adapalene): 1196 pg
- increase of secreted IL-1ra compared with the control medium (IL-1ra [3]; 10^−6 M adapalene): 1.4%
- increase of secreted IL-1ra compared with the control medium (IL-1ra [3]; 10^−7 M adapalene): 4.4%
- intensity of expression of IL-1ra (IL-1ra [4]; 1st subgroup of healthy donors (n=4, weak control expression), 10^−6 M adapalene): 1.2 (+/−0.4)
- intensity of expression of IL-1ra (IL-1ra [4]; 1st subgroup of healthy donors (n=4, weak control expression), 10^−7 M adapalene): 1.1 (+/−0.4)
- modulatory effect on the expression of IL-1ra (in words) (IL-1ra [4]; 1st subgroup of healthy donors, expression in the control medium weak): an inducing effect
- intensity of expression of IL-1ra (IL-1ra [4]; 2nd subgroup of healthy donors (n=4, greater control expression), 10^−6 M adapalene): 0.5 (+/−0.0)
- intensity of expression of IL-1ra (IL-1ra [4]; 2nd subgroup of healthy donors (n=4, greater control expression), 10^−7 M adapalene): 0.5 (+/−0.0)
- modulatory effect on the expression of IL-1ra (in words) (IL-1ra [4]; 2nd subgroup of healthy donors, expression in the control medium greater): an inhibitory effect
- intensity of expression of IL-1ra in the epidermis (IL-1ra [4]; 10^−6 M adapalene): 0.8 (+/−0.4)
- intensity of expression of IL-1ra in the epidermis (IL-1ra [4]; 10^−7 M adapalene): 0.9 (+/−0.5)
- modulatory effect on the expression of IL-1ra in the epidermis (in words) (IL-1ra [4]; mean of 8 healthy donors, 10^−7 M and 10^−6 M): No significant modulation; also recorded: does not demonstrate a modulatory effect
- production of free radicals (in words) (free radicals): inhibits
- binding to cellular retinoic acid binding proteins (in words) [5]: does not, on the other hand, bind
- clinical activity on superficial inflammatory lesions (in words) [6]: exhibits an activity
- intensity of expression of IL-1ra in the epidermis (IL-1ra [7]; 10^−6 M adapalene): 0.9 (+/−0.7)
- intensity of expression of IL-1ra in the epidermis (IL-1ra [7]; 10^−7 M adapalene): 0.8 (+/−0.8)
- effect on the expression of IL-1ra in the epidermis (in words) (IL-1ra [7]; acneic patients, 10^−7 M and 10^−6 M): increases the expression
